Data published in patent publication US5621102A, “Process for preparing enantiomerically pure xanthine derivatives” (Cell Therapeutics, Inc., priority 1995, dated 1997).

Key:
[1] = tested on: PBMC (peripheral blood mononuclear cells); assay: two-way mixed lymphocyte reaction (MLR); format: cell-based, human
Source text: Various in vitro assays can be used to measure effects of the inventive compounds to module immune activity and have antitumor activity using a variety of cellular types. For example, a mixed lymphocyte reaction (MLR) provides a valuable screening tool to determine biological activity of each inventive compound. In the MLR, PBMCs (peripheral blood mononuclear cells) are obtained by drawing whole blood from healthy volunteers in a heparinized container and diluted with an equal volume of hanks balanced salt solution (HBSS). This mixture is layered on a sucrose density gradient, such as a Ficoll-Hypaque® gradient (specific gravity 1.08), and centrifuged at 1000×g for 25 minutes at room temperature or cooler. PBMC are obtained from a band at a plasma-Ficoll interface, separated and washed at least twice in a saline solution, such as HBSS. Contaminating red cells are lysed, such as by ACK lysis for 10 min at 37° C., and the PBMCs are washed twice in HBSS. The pellet of purified PBMCs is resuspended in complete medium, such as RPMI 1640 plus 20% human inactivated serum. Proliferative response of PBMC to allogeneic stimulation is determined in a two-way MLR performed in a 96-well microliter plate. […] At the conclusion of the incubation tritiated thymidine is added (for example, 1 μCi/well of 40 to 60 Ci/mmole) and proliferation determined by liquid scintillation counting. […]

[2] = tested on: TNF-α release from IL-1α activated PEC; assay: TNF-α release from IL-1α activated PEC, ELISA; format: cell-based; settings: Mus musculus, 50 ng/ml IL-1α, at the tested time points (24, 48, 72 hrs), read-out: inhibition of induced levels of TNF-α
Protocol: Cells were isolated and treated with or without CT1501R (250 μM) 1 hour prior to IL-1-α activation. The supernatants were collected at 24, 48 or 72 hrs following activation and assayed for TNF-α by ELISA (+/-SD).
Murine peritoneal exudate cell macrophages (PEC) were isolated by perfusion of mouse peritoneum and plated into 96-well trays at 5×10^5 cells per well. Cells were stimulated with 5 μg/ml Salmonella abortus equi-derived endotoxin CLPS; Sigma Chemical Co., L-1887) or 50 ng/ml IL-1α (Genzyme; Cambridge, Mass.) with or without the addition of CT1501R added to the cultures one hour prior to addition of the stimulus. At various times thereafter, supernatants were removed and levels of either TNF-α or IL-1α were assayed using commercial 96-well microtiter immunoassay kits (Genzyme; TNF; Endogen, Boston, Mass.; IL-1α) according to manufacturer's specifications. For the adhesion studies, early passage human umbilical vein endothelial cells (HUVEC) were obtained from commercial suppliers (Clonetics, San Diego, Calif. or Cell Systems, Seattle, Wash.) and cultured in defined, Hepes buffered, serum free medium (Cell Systems, cat 301-180) supplemented with acidic FGF (Cell Systems cat 401-111). […] After addition of […] Hanks Balanced Salt Solution (HBSS), the microtiter plate was then analyzed on a Millipore Cytofiuor fluorescent plate reader (excitation 488 nm; emission 525 nm). […]

IL-6 = assay: mouse plasma IL-6 ELISA after endotoxin; format: in vivo, mice
Protocol: FIG. 8 illustrates data from mouse plasma IL-6 ELISA measurements. Data are compiled from the average of duplicate ELISA measurements from a single experiment with each point representing pooled plasma from three mice.
For ELISA measurements of cytokine levels in plasma, blood was collected by retro-orbital or cardiac puncture of anesthetized mice, immediately centrifuged and the EDTA plasma stored at -70° C. Particulate free plasma was thawed on ice and cytokine levels determined utilizing commercial ELISA assays with normal mouse plasma used to generate standard curves. Murine tumor necrosis factor-α and interleukin-1α kits were purchased from Genzyme (Cambridge, Mass.) and Endogen (Boston, Mass.), respectively. Each data point was an average of two ELISA measurements made from EDTA serum pooled from three mice. The data summarized in Table 3 were compiled from two independent experiments; data from Table 4 and 5 were from single experiments of three mice per data point.
In particular, peak levels observed at 6, 12 and 18 hours post endotoxin were decreased 1.2, 4.3 and 3.2-fold, respectively. Finally, IL-6 measurements were made in a similar manner (Table 6, FIG. 8).

## C[C@@H](O)CCCCn1c(=O)c2c(ncn2C)n(C)c1=O [CT1501R, (R)-1-(5-hydroxyhexyl)-3,7-dimethylxanthine]
[1]
  proliferative response of PBMC to allogeneic stimulation: showed dose-response activity
[2]
  inhibition at 250 µM: 50 to 70%
IL-6; 3 hours post endotoxin
  decrease of peak plasma IL-6 vs endotoxin only: 1.7 fold
IL-6; 6 hours post endotoxin
  decrease of peak plasma IL-6 vs endotoxin only: 2.0 fold
IL-6; 12 hours post endotoxin
  decrease of peak plasma IL-6 vs endotoxin only: 4.1 fold
